Legend:
Format in all cases: cell-based
FKBP* = biological target: T1, FKBP* (Homo sapiens, UniProt P62942, F37V); assay: Immunoblot of FKBP* degradation in 293FT cells (CRBN-WT or CRBN-/-); conditions: 293FT CRBN-WT; pretreated two hours with 1 uM Carfilzomib, 0.5 uM MLN4924 or 10 uM Lenalidomide, then 4 hour dFKBP13
T1 construct: HA; expressed in transfected cells; host or cells: 293FT cells (CRBN-WT or CRBN-/-)
Method: FIG. 6 is an immunoblot of cells treated with bi-functional molecules described in the present invention. As described in Example 3, 293FT cells (CRBN-WT or CRBN−/−) expressing either HA-tagged FKBP12WT or FKBP* (also referred to as dFKBP12* herein) were treated with indicated concentrations of dFKBP7 for 4 hours.
FIG. 8 is an immunoblot of cells treated with heterobifunctional compounds described in the present invention. Isogenic 293FT cells (CRBN-WT or CRBN−/−) expressing either FKBP12WT or FKBP* were treated with 100 nM of either dFKBP7 or dFKBP13 for 4 hours (Example 5).
FIG. 9 is an immunoblot of cells treated with heterobifunctional compounds described in the present invention. Isogenic 293FT cells (CRBN-WT or CRBN−/−) expressing HA-tagged FKBP* were treated with the indicated dose of dFKBP13 for 4 hours (Example 6).
FIG. 11 is an immunoblot of cells treated with heterobifunctional compounds described in the present invention. 293FT cells (CRBN-WT) expressing FKBP* were pretreated with 1 uM Carfilzomib (proteasome inhibitor), 0.5 uM MLN4924 (neddylation inhibitor), and 10 uM Lenalidomide (CRBN binding ligand) for two hours prior to a 4 hour treatment with dFKBP13 (Example 8). Degradation of HA-tagged FKBP* by dFKBP13 was rescued by the proteasome inhibitor Carfilzomib, establishing a requirement for proteasome function.
The dTAG is predicated on the selectivity of FKBP* specific ligands over endogenous, wild type FKBP. In 293T cells expressing wild type FKBP12 or FKBP*, dFKBP7 induces targeted degradation only in FKBP* expressing cells. An immunoblot of cells treated with bi-functional molecules described in the present invention was performed. 293FT cells (CRBN-WT or CRBN−/−) expressing either HA-tagged FKBP12WT or FKBP* were treated with indicated concentrations of dFKBP7 for 4 hours.
In 293T cells expressing wild type FKBP12 or FKBP*, treatment with dFKBP7 and dFKBP13 induces targeted degradation only in FKBP* expressing cells. Isogenic 293FT cells (CRBN-WT or CRBN−/−) were engineered to express either FKBP12WT or FKBP*. Cells were treated with 100 nM of either dFKBP7 or dFKBP13 for 4 hours before lysates were prepared for western immunoblot analysis.
In an effort to define the optimal concentration of dFKB13 heterobifunctional compounds to induce degradation of FKBP*, degradation was measured upon treatment with increasing concentrations of dFKBP13. Isogenic 293FT cells (CRBN-WT or CRBN−/−) were engineered to expressed HA-tagged FKBP*. Cells were treated with the indicated dose of dFKBP13 for 4 hours before lysates were prepared for western immunoblot analysis.
293FT cells (CRBN-WT) were engineered to express FKBP*. Cells were pretreated with 1 uM Carfilzomib (proteasome inhibitor), 0.5 uM MLN4924 (neddylation inhibitor), and 10 uM Lenalidomide (CRBN binding ligand) for two hours prior to a 4-hour treatment with dFKBP13. Lysates were prepared and western immunoblot analysis performed. Degradation of HA-tagged FKBP* by dFKBP13 was rescued by the proteasome inhibitor Carfilzomib, establishing a requirement for proteasome function.

FKBP*-KRASG12V = assay: Immunoblot of FKBP*-KRASG12V degradation in NIH3T3 cells; conditions: NIH3T3 cells expressing dTAG-KRASG12V; 1 μM, 24 hours
Method: (§1) FIG. 19 is an immunoblot of NIH3T3 cells expressing KRASG12V allele fused to FKBP* in the N-terminus or C-terminus. Cells were treated with 500 nM dFKBP7 for the indicated time. Cells were harvested and immunoblotted to measure degradation of FKBP*-KRASG12V and downstream surrogates of KRAS signaling (e.g. pMEK and pAKT).
(§2) Cells were harvested and immunoblotted to measure degradation of FKBP*-KRASG12V and downstream surrogates of KRAS signaling (e.g. pMEK and pAKT).
as §2, §2
Cells were treated with 500 nM dFKBP7 for the indicated time. Cells were harvested and immunoblotted to measure degradation of FKBP*-KRAS and downstream surrogates of KRAS signaling (e.g. pMEK and pAKT).
(§3) Cells were harvested and immunoblotted to measure degradation of FKBP*-KRAS and downstream surrogates of KRAS signaling (e.g. pMEK and pAKT).
as §3
To evaluate the kinetic control of targeted degradation of dTAG-KRAS, dFKBP13 was administered by increased duration. […]

[1] = system: KRAS signaling (pMEK and pAKT); assay: Immunoblot of downstream surrogates of KRAS signaling in NIH3T3 cells expressing FKBP*-KRASG12V; conditions: NIH3T3 cells expressing dTAG-KRASG12V; 1 μM, 24 hours
Method: as §1
(§4) FIG. 20 is an immunoblot of NIH3T3 cells expressing FKBP* fused to the N-terminus of KRASG12V treated with 1 uM of the indicated dFKBP heterobifunctional compounds for 24 hours. Cells were harvested and immunoblotted to measure degradation of FKBP*-KRASG12V and downstream surrogates of KRAS signaling (e.g. pMEK and pAKT).
as §4, with “21” for “20”, “with” for “with 1 uM of”, “concentrations of dFKBP13” for “dFKBP heterobifunctional compounds”
FIG. 22 is an immunoblot of NIH3T3 cells expressing FKBP* fused to the N-terminus of KRASG12V treated with 1 uM dFKBP13 for the indicated time. Cells were harvested and immunoblotted to measure degradation of FKBP*-KRASG12V and downstream surrogates of KRAS signaling (e.g. pMEK and pAKT).
Cells were treated with 500 nM dFKBP7 for the indicated time. […]

T1 sequence (P62942 whole entry F37V): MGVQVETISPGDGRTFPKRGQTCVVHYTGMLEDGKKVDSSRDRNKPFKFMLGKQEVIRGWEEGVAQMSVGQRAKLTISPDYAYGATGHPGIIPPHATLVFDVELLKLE

| SMILES | Effect of pretreatment on dFKBP13-induced degradation of HA-tagged FKBP* (FKBP*) | Degradation of FKBP*-KRAS (FKBP*-KRASG12V) | Inhibition of downstream signaling (pMEK, pAKT) [1] |
| --- | --- | --- | --- |
| CC(C)C[C@H](NC(=O)[C@H](CCc1ccccc1)NC(=O)CN1CCOCC1)C(=O)N[C@@H](Cc1ccccc1)C(=O)N[C@@H](CC(C)C)C(=O)[C@@]1(C)CO1 [Carfilzomib] | rescued |  |  |
| Nc1cccc2c1CN(C1CCC(=O)NC1=O)C2=O (centres unmarked) [Lenalidomide] | abolished dFKBP13-dependent FKBP* degradation |  |  |
| NS(=O)(=O)OC[C@@H]1C[C@@H](n2ccc3c(N[C@H]4CCc5ccccc54)ncnc32)C[C@@H]1O [MLN4924] | rescued HA-tagged FKBP* |  |  |
| CC[C@H](C(=O)N1CCCC[C@H]1C(=O)O[C@H](CCc1ccc(OC)c(OC)c1)c1cccc(OCC(=O)NCCCCCCCCNC(=O)COc2cccc3c2C(=O)N(C2CCC(=O)NC2=O)C3=O)c1)c1cc(OC)c(OC)c(OC)c1 (some centres unmarked) [dFKBP9] |  | potent degradation of FKBP*-KRAS | inhibition of downstream signaling |

Reference: patent publication US11311609B2, “Regulating chimeric antigen receptors” (DANA-FARBER CANCER INSTITUTE, INC., priority 2017, dated 2022)
